Measurements as given in patent publication US20260198495A1, “BINARY INSECTICIDE COMPOSITION AND USE THEREOF” (SHENYANG SINOCHEM AGROCHEMICALS R & D CO., LTD., priority 2022, published 2026).

Legend:
Type in all cases: in vivo
[1] = system: Bemisia tabaci (Gennadius) nymphs; assay: Joint toxicity of I-72 + pyrifluquinazon, Example 77, Table 77; conditions: Bemisia tabaci; A = compound I-72, B = pyrifluquinazon; cotton leaf-disk spraying; 96 hours; read-out: LC50
Protocol: Test target: Bemisia tabaci (Gennadius) nymphs, a sensitive strain reared indoors.
(§1) Preparation of the pesticide solution: according to different test requirements, the test samples were accurately weighed respectively with an electronic analytical balance. The technical pesticides were dissolved in acetone, and then diluted with 0.1% Tween 80 water into a series of pesticide solutions with a certain concentration gradient according to the experimental design dosage.
(§2) Experimental method: first, cotton leaves with neat and consistent Bemisia tabaci (Gennadius) nymphs were selected and made into leaf disks, with about 20 insects on each leaf disk. Then, they were evenly sprayed with the pesticide solution in the order from low dosage to high dosage according to the experimental design, with 1.5 mL for each leaf and 3 replicates for each treatment. In addition, a blank control was set up.
(§3) The treated test materials were placed in an observation room, and the temperature, humidity and illumination of the observation room could be adjusted as needed. The number of dead and live insects was investigated 96 hours later. […] Then, the co-toxicity coefficient of each ratio was calculated using the Sun Y-P method to evaluate the mixing effect (the same as in Example 1).

[2] = system: Aphis gossypii Glover nymphs; assay: Joint toxicity of I-72 + flonicamid, Example 74, Table 74; conditions: Aphis gossypii; A = compound I-72, B = flonicamid; cotton leaf spraying; 48 hours; read-out: LC50
Protocol: Test target: Aphis gossypii Glover nymphs, a sensitive strain reared indoors.
as §1
as §2, with “uniform” for “neat”, “Aphis gossypii” for “Bemisia tabaci (Gennadius) nymphs”, “selected,” for “selected and made into leaf disks,”, “30-40” for “20”, “leaf.” for “leaf disk.”
as §3, with “48” for “96”

[3] = system: second-instar larvae of Meloidogyne incognita; assay: In vitro joint toxicity of I-72 + fluopyram, 24-well plate, Example 32, Table 32; conditions: A = I-72, B = fluopyram, 24-well plate, 25° C., 48 hours, read-out: LC50
Protocol: Test target: second-instar larvae of Meloidogyne incognita, a sensitive strain reared in a greenhouse.
as §1
Experimental method: the prepared pesticide solutions were added to a 24-well plate in the order from low dosage to high dosage according to the experimental design. In each well of each treatment, 50 nematodes were placed. Each drug had 5 concentrations set, with 3 replicates. After the treatment, the 24-well plate was placed in a constant temperature incubator at 25° C. In addition, a blank control group was set up. The number of dead and live insects was investigated 48 hours later. […] Then, the co-toxicity coefficient of each ratio was calculated using the Sun Y-P method to evaluate the mixing effect (the same as in Example 1).

## CN(C(=O)c1ccc2c(c1)OC(F)(F)O2)c1cccc(C(=O)Nc2c(Br)cc(C(F)(C(F)(F)F)C(F)(F)F)cc2OC(F)F)c1F [Compound I-72]
[1]
  LC50: 10.8 µg/mL
[2]
  LC50: 2.81 µg/mL
[3]
  LC50: 249 µg/mL
